Experimental data: PMC6052416, “Selective inhibition of carbonic anhydrase-IX by sulphonamide derivatives induces pH and reactive oxygen species-mediated apoptosis in cervical cancer HeLa cells” (Journal of Enzyme Inhibition and Medicinal Chemistry, 2018)

Legend:
HeLa cells [1] = test: Western blot of apoptosis proteins and CA IX; type: cell-based, human; details: 24 h
Method: The cells were seeded on 6 cm^2 cell culture dishes and treated with sulphonamide compounds, at doses of 10–25–50 µM, for 24 h. The cells were then washed with cold PBS, which was followed by lysis with RIPA lysis buffer (10 mM Tris-HCl pH = 8, 1 mM EDTA, 1 mM EGTA, 140 mM NaCl, 1% Triton X-100, 0.1 SDS, 0.1% sodium deoxycholate), 1X phosphates and protease inhibitor (Santa Cruz Biotechnology, Dallas, USA). The acquired supernatants from the lysates which were centrifuged at 12,000 g, + 4 °C, for 10 min, were transferred to new tubes. Protein concentration was detected using the protein assay kit BCA (Thermo Fisher Scientific, Waltham, MA). After a 30-min period of protein (50 µg) standing in 10% SDS–PAGE gel at 50 V and at 80 V for 3 h, those were blotted to PVDF membrane at 70 V for 5 min (Bio-Rad Turbo Transfer System). After embedding in 1X TBST (12.1 g Tris, pH 7.5, 70 g NaCl, 0.1% Tween-20) containing 5% dry milk or 5% BSA, the primer monoclonal antibodies shown in Table 2 were applied to the membrane and left overnight, which was followed by washing with 1 X TBS-T and an incubation period with secondary antibodies of HRP rabbit or mouse (1/10.000) for 60 min. The membrane was again washed with 1 X TBS-T. For band imaging, ECL substrate (EMD Millipore Corp., Billerica, MA) was added and observations were made via the imaging system (LI-COR Odyssey Fc).

HeLa cells [2] = test: Annexin-V FITC/PI apoptosis by flow cytometry; type: cell-based, human; details: Annexin-V FITC
Method: The apoptotic effect of the substances was explored with the commercial FITC Annexin-V Apoptosis Detection Kit I (BD Biosciences, New Jersey, USA) according to the manufacturer’s protocol. The cells were planted in 6-well plates (5 × 10^5 cells/well), and following 24-h incubation, sulphonamide derivative compounds at concentrations of 10–25–50 µM were administered, followed by incubation for 24 h. The cells were raised by trypsin handling and transferred into new tubes within 1X binding buffer, as 1 × 10^6 in each tube, which were incubated for 15 min at room temperature. 5 µL of fluorochrome-conjugated Annexin-V and 5 µL of propidium iodide dyes were then added. 100 µL 1X binding buffer was added to the cells, and they were then centrifuged at 1200 rpm, for 5 min. Finally, the cells were analysed in flow cytometry (BD Via, New Jersey, USA).

SMILES: NS(=O)(=O)c1ccc(CCN=Cc2cc(Br)ccc2O)cc1 [Compound 1]
- CA IX protein expression (HeLa cells [1]; HeLa, 50μM): increase
- cleaved caspase-8 level (HeLa cells [1]; HeLa, 50μM): increase
- cleaved caspase-9 level (HeLa cells [1]; HeLa, 10, 25, 50 µM): increase
- cleaved caspase-3 level (HeLa cells [1]; HeLa): significantly increased
- cleaved-PARP level (HeLa cells [1]; HeLa): increase
- dose from which an apoptotic effect was shown (HeLa cells [2]): ≥ 25 µM
